Our source for the damage score and leaf damage values is patent publication US10597674B2, “HPPD variants and methods of use” (BASF Agricultural Solutions Seed, US LLC, priority 2015, dated 2020).

For experiment [1], the system named is transgenic soybean T0 events. In words: Additional greenhouse trials of T0 soybean events, leaf damage score 0-100 as percentiles. The format is in vivo. The settings on record: wild-type plants, 300 g AI/ha, five days, scale 0-100. A digest of the protocol: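 Independent T0 events (21 to 94 per construct, single cassette insertion) expressing mutant HPPD were sprayed with HPPD inhibitor herbicide in the greenhouse. Leaf damage scored 5 days after application from 0 (no damage) to 100 (complete bleaching). Scores reported as percentile distributions (25th, median, 75th) per construct.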

Experiment [2] concerns transgenic T1 soybean events. In words: Field trials of T1 soybean events, leaf damage eight days after application. The format is in vivo. The settings on record: wild-type or segregated T1 soybean plants without tolerant polypeptide; 210 g/ha isoxaflutole or 150 g/ha Cmpd. 1; eight days. The essentials:
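T1 soybean events carrying the HPPD inhibitor tolerant polypeptide, field-grown and sprayed with isoxaflutole 210 g/ha or Cmpd 150 g/ha. Leaf damage scored eight days after application; good tolerance defined as ≤15% damaged leaf area, reported as event frequency.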

The structures appear in SMILES notation.

Consider `CSc1c(C(F)(F)F)ccc(C(=O)Nc2nnnn2C)c1Cl` [Cmpd. 1, 2-chloro-3-(methylsulfanyl)-N-(1-methyl-1H-tetrazol-5-yl)-4-(trifluoromethyl)benzamide, reference compound], for which the damage score in experiment [1] is listed as 95-100. This compound also gave a leaf damage in experiment [2] of 100%.
